Data from US20080114008A1, “Quinazoline Derivatives as Antiviral Agents” (ARROW THERAPEUTICS LIMITED, priority 2005, published 2008).
pIC50: −log10 of the molar value.

What was measured:
[1] = system: HCV replicon cells Huh 9B; test: HCV replicon luciferase assay; assay type: cell-based; settings: Hepatitis C virus; Huh 9B replicon cells, 72 h incubation, luciferase readout
Experimental: (§1) HCV replicon cells Huh 9B (ReBlikon), containing the firefly luciferase—ubiquitin—neomycin phosphotransferase fusion protein and EMCV-IRES driven HCV polyprotein with cell culture adaptive mutations.
(§2) Cells were cultured at 37° C. in a 5% CO2 environment and split twice a week on seeding at 2×10E6 cells/flask on day 1 and 1×10E6 3 days later. Some 0.25 mg/ml G418 was added to the culture medium (125 ul per 25 ml) but not the assay medium.
(§3) The culture medium consisted of DMEM with […] glucose and glutamax (Gibco 61965-026) supplemented with 1× non-essential amino acids, penicillin (100 IU/ml) / streptomycin (100 μg/ml), FCS (10%, 50 ml) and 1 mg/ml G418 (Invitrogen cat no 10131-027) & 10% foetal calf serum.
(§4) A flask of cells was trypsinised and a cell count carried out. Cells were diluted to 100,000 cells/ml and 100 μl of this used to seed one opaque white 96-well plate (for the replicon assay) and one flat-bottomed clear plate (for the tox assay) for every seven compounds to be tested for IC50. Wells G12 and H12 were left empty in the clear plate as the blank. Plates were then incubated at 37° C. in a 5% CO2 environment for 24 h.
(§5) On the following day compound dilutions are made up in medium at twice their desired final concentration in a clear round bottomed plate. All dilutions have a final DMSO concentration of 1%.
(§6) Once the dilution plate had been made up, controls and compounds were transferred to the assay plate (containing the cells) at 100 μl/well in duplicate plates. Exception: in the white (replicon) plate, no compound was added to wells A1 and A2 and 100 μl of 1% DMSO was added to these instead. In the clear (Tox) plate, wells E12 & F12 only contained the DMSO control. Plates were then incubated at 37° C. with 5% CO2 for 72 h.
At the end of the incubation time, the cells in the white plate were harvested by washing with 200 μl/well of warm (37° C.) PBS and lysed with 20 μl cell culture lysis buffer (Promega). […]

[2] = system: HCV replicon cells Huh 9B; test: Tox assay (methylene blue staining of replicon cells); assay type: cell-based; settings: Huh 9B replicon cells, 72 h incubation, methylene blue absorbance at 620 nm
Experimental: as §1, §2, §3, §4, §5
as §6, with “Plates were then incubated at 37° C. with 5% CO2 for 72 h.” left out
The clear plate was stained with 100 μl 0.5% methylene blue in 50% ethanol at RT for 1 h, followed by solvation of the absorbed methylene blue in 100 μl per well of 1% lauroylsarcosine. Absorbance of the plate was measured on a microplate spectrophotometer (Molecular Devices) and the absorbance for each concentration of compound expressed as a proportion of the relative DMSO control. […]

SMILES | pIC50 [1] | Replicon TD50 [2]
c1ccc(Nc2ncnc3ccc(-c4ccc5ncnc(Nc6ccc(N7CCOCC7)cc6)c5c4)cc23)cc1 [Example 2, N*4*-(4-Morpholin-4-yl-phenyl)-N*4′*-phenyl-[6,6′]biquinazolinyl-4,4′-diamine] | > 6.00 | *** (>25 uM = ***)
c1nc(Nc2ccc(N3CCOCC3)cc2)c2cc(-c3ccc4ncnc(Nc5ccc(N6CCOCC6)cc5)c4c3)ccc2n1 [Example 1, N-(4-morpholinophenyl)-6-(4-(4-morpholinophenylamino)quinazolin-6-yl)quinazolin-4-amine] | > 6.00 | *** (>25 uM = ***)
c1nc(Nc2ccc(-n3cncn3)cc2)c2cc(-c3ccc4ncnc(Nc5ccc(-n6cncn6)cc5)c4c3)ccc2n1 [Example 3, N*4*,N*4′*-Bis-(4-[1,2,4]triazol-1-yl-phenyl)-[6,6′]biquinazolinyl-4,4′-diamine] | > 6.00 | *** (>25 uM = ***)
